Test results from patent publication US5962408A, “Disulphide-cyclo-[H-Cys-Glu-Gln-Tyr-Cys-OH], and its use in blood-clotting disorders” (Nycomed Imaging AS, priority 1994, dated 1999).
Entries after “also recorded” stand apart in the source; their conditions may differ. Like-named read-outs stand apart in the source and are kept apart here. Positions of bridges follow the written chain, without caps; N, C: chain ends. Residues, ends and D or L forms follow the SMILES beside them.

Legend:
[1] = biological target: T1, factor VIIa/tissue factor (Homo sapiens, UniProt P13726); test: two-stage chromogenic assay of factor VIIa/tissue factor-catalysed factor X activation; assay type: biochemical
T1 construct: purchased American Diagnostica, Inc. (TF); Novo Nordisk A/S (FVIIa)
Procedure: This was determined using a two-stage chromogenic biochemical in vitro assay, essentially as described (A. Kumar et al., 1991, J. Biol. Chem., 266, 915). In short: peptides were pre-incubated with lipidated TF (5 pM; from American Diagnostica, Inc., Greenwich, Conn., USA) and calcium (5 mM) for 10 minutes prior to addition of FVIIa (5 pM; from Novo Nordisk A/S, Gentofte, Denmark) and FX (20 nM; from Enzyme Research Laboratory, South Bend, Ind., USA). Reactions were terminated by addition of EDTA (50 mM) and formation of FXa was monitored using the chromogenic FXa substrate S2765 (0.4 mM; from Chromogenix, Mondal, Sweden) and measuring the absorbance increase at 405 nm in a microtitre plate reader. The concentration for half-maximal inhibition (IC50) was determined from dose-inhibition curves.

[2] = solubility in physiological media; assay type: physicochemical
[3] = test system: tissue factor-dependent plasma coagulation; test: one-stage in vitro tissue factor-dependent plasma coagulation assay; assay type: biochemical, human; conditions: end-capped peptide tested up to 1.5 mM
Procedure: A one-stage in vitro coagulation assay was used as follows: peptides dissolved in 3-[N-morpholino]propane-sulphonic acid buffer (100 mM, pH 7.4) and NaCl (100 mM) were premixed with diluted (1:50 in saline) lipidated TF (Thromborel S®, Behringwerke AG, Marburg, Germany) and CaCl2 (5 mM final concentration) and the solutions were kept at 37° C. for 2 minutes. The coagulation reaction was initiated by addition of a thawed aliquot of frozen platelet-free human plasma pool (37° C.). The clotting-time for four replicate incubations were simultaneously determined automatically in an electromagnetic coagulometer (Thrombotrack 4, Nycomed Pharma AS, Oslo, Norway). The mean value for the clotting times determined from the replicate samples were converted to arbitrary TF units by a log-log calibration curve generated with Thromborel.

[4] = biological target: binding of Factor VII to tissue factor (Homo sapiens, UniProt P13726); conditions: reported in PCT/GB94/01315; cited from earlier work
[5] = test system: TF-dependent arterial thrombogenesis; test: human ex vivo model of TF-dependent arterial thrombogenesis; conditions: around 1 mM final peptide/plasma concentration
Procedure: Apart from the ability of the peptide disulphide-cyclo-[H-Cys-Glu-Gln-Tyr-Cys-OH] to inhibit the complex formation between FVIIa and TF in various biochemical assays, we have also found this peptide to be efficacious in a clinically relevant ex vivo model of TF/FVII-dependent arterial human thrombogenesis.
The efficacy of peptides was tested in a human ex vivo model of TF-dependent arterial thrombogenesis, essentially as described (K. S. Sakariassen et al., 1990, Arteriosclerosis, 10, 276; U. .O slashed.rvim et al., 1995, Arterioscl. Thromb. Vasc. Biol., in press). Human non-anticoagulated blood was drawn directly from an antecubital vein and mixed with peptide solution in a heparin-coated mixing device situated proximally to a perfusion chamber which contained a TF-coated coverslip (Thromborel S®). Blood flow was kept at 10 mL/min for 4 minutes, producing a shear rate of 650 s^-1, typical for small arteries.

[6] = mean±standard deviation, TF 5 pM, FVIIa 5 pM, FX 20 nM, read-out: IC50 (concentration for half-maximal inhibition of FXa formation)
[7] = summary values in the description, read-out: IC50 in the two-stage chromogenic assay of A. Kumar et al.

T1 sequence (P13726 33-295): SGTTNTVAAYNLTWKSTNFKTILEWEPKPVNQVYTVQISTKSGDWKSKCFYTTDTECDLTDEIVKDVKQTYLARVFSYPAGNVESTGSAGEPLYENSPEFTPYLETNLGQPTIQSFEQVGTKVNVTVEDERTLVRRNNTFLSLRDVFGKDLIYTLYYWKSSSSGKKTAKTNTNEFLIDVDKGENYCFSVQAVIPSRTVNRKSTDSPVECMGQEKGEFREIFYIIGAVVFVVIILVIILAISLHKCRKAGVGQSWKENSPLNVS
Chain of binding of Factor VII to tissue factor (P13726 33-295): as above

IC50 [1, 6] [µM] | IC50 [1, 7] [µM] | fold lower potency versus disulphide-cyclo-[H-Cys-Glu-Gln-Tyr-Cys-OH] ([1]; same assay) [fold] | highest testable concentration due to solubility ([2]; coagulation assay buffer) | Compound | solubility properties in physiological media [2] | effect on clotting time [3] | inhibition of binding of Factor VII to tissue factor [4] | effect on thrombus formation [5]
10.1 ± 5 | 10 |  |  | NC(=O)CC[C@@H]1NC(=O)[C@H](CCC(=O)O)NC(=O)[C@@H](N)CSSC[C@@H](C(=O)O)NC(=O)[C@H](Cc2ccc(O)cc2)NC1=O [disulphide-cyclo-[H-Cys-Glu-Gln-Tyr-Cys-OH]] (H-CEQYC-OH; disulfide 1-5) | superior solubility properties; also recorded: freely soluble |  |  | 
265 ± 174 | ~200 | 26 | ca. 1.5 mM | CC(=O)N[C@H]1CSSC[C@@H](C(N)=O)NC(=O)[C@H](Cc2ccc(O)cc2)NC(=O)[C@H](CCC(N)=O)NC(=O)[C@H](CCC(=O)O)NC1=O [disulphide-cyclo-[Ac-Cys-Glu-Gln-Tyr-Cys-NH2 ]] (Ac-CEQYC-NH2; disulfide 1-5) | poor solubility properties | without any effect | negligible | 
 |  |  |  | H-YADKIEDTKL-OH [H-Tyr-Ala-Asp-Lys-Ile-Glu-Asp-Thr-Lys-Leu-OH] |  |  |  | no effect
